Reference: US4871661A, “Process for testing the carcinogenicity of a material or the presence of cancer-inducing factors in an environment” (priority 1985, dated 1989)
Where two headings read alike, the source gives them in different places.

How the values were obtained:
[1] = test system: cancer-associated phosphoprotein; conditions: for induction of the cancer-associated phosphoprotein in the plasma: rat plasma, result in words
[2] = test system: cancer-associated phosphoprotein; assay: ELISA assay of purified 60K plasma protein fraction from rats exposed to test compound; format: in vivo, rat (Sprague-Dawley strain)
Protocol: This example illustrates a process of the present invention in which the assay for the cancer-associated phosphoprotein is effected by means of an ELISA test.
Samples of the purified 60K protein fraction from the Sepharose CL-6B column used in Example 1 above were subjected to an ELISA assay. […] Also subjected to the same ELISA assay were purified protein fractions from the control rats and from a rat suffering from a hepatoma 7777 tumor.
The ELISA assay was conducted in the following manner. A sample of the cancer-associated phosphoprotein prepared in the manner described in Example 1 of the aforementioned parent application Ser. No. 554,439 was bound to a well in a plastic tray, and the well thereafter washed thoroughly. A polyclonal rabbit antibody serum prepared as described in Example 2 of the aforementioned parent application Ser. No. 554,439 was then mixed with the protein sample to be assayed and the resultant mixture incubated at 37° C. for 30 minutes. The mixture was then added to the well containing the cancer-associated phosphoprotein, and the tray incubated for one hour at 37° C., then washed thoroughly. Following this washing, there was added to the well a goat anti-rabbit IgG antibody serum conjugated to horseradish peroxidase enzyme, and the tray was incubated for one hour at 37° C. then washed thoroughly. The substrate for the horseradish peroxidase enzyme, namely 2,2-azino-di(3-ethylbenzthiazoline sulfonic acid) was added to the well and the tray incubated to 15 minutes at room temperature. The color development was then stopped by addition of a 2 mM solution of sodium azide and the intensity of the color in the wells determined using a spectrophotometer at […].
To determine the maximum possible optical density, a control test was run in which the test sample was replaced with a buffer containing no cancer-associated phosphoprotein; this optical density represents the maximum possible reaction of uninhibited antibody binding to the bound cancer-associated phosphoprotein. […] The optical density of a well containing as a control sample an equivalent fraction of normal rat plasma free of cancer-associated phosphoprotein is designated 0% inhibition; the optical density of this control sample should be close to that of the sample using the buffer solution The samples tested for the presence of the cancer-associated phosphoprotein are designated positive when the optical density exceeds that of the control value by two standard deviations. The concentration of cancer-associated phosphoprotein is directly related to the percentage inhibition and can be compared to that of the standard solution of the cancer-associated phosphoprotein.

rat = conditions: cited from earlier work
transformed cells = conditions: some types of transformed cells; cited from earlier work
[3] = test system: cancer-associated phosphoprotein; format: in vivo, rat; conditions: acute or chronic treatment of rats
Excerpt: Further experiments indicate that release of the cancer-associated phosphoprotein into the plasma was not induced upon induction of liver regeneration in the rat by partial hepatectomy, nor by acute or chronic treatment of the rats with the non-carcinogenic tumor promoter phenobarbital.

[4] = ELISA inhibition, plasma fraction of treated rat, standard phosphoprotein solution = 100%, normal rat plasma fraction = 0%
[5] = 200 micromoles/kg, intraperitoneal, plasma ~21 days after exposure, control subtracted
[6] = 160 micromoles/kg, intraperitoneal, plasma ~21 days after exposure, control subtracted
[7] = 210 micromoles/kg, intraperitoneal, plasma ~21 days after exposure, control subtracted
[8] = 600 micromoles/kg, intraperitoneal, plasma ~21 days after exposure, control subtracted
[9] = 1 millimole/kg, intraperitoneal, plasma ~21 days after exposure, control subtracted

Question: What does the source list for `CNNC` [1,2-dimethylhydrazine]?
Answer: RNA-releasing Activity ([1]; 560 micromoles/kg, intraperitoneal, plasma ~21 days after exposure, control subtracted): 5.71 percent nuclear counts per min; Percentage Inhibition [2, 4]: 79%

Question: What does the source list for `O=[N+]([O-])c1ccc2ccc3cccc4ccc1c2c34` [1-Nitropyrene]?
Answer: RNA-releasing Activity ([1]; 105 micromoles/kg, intraperitoneal, plasma ~21 days after exposure, control subtracted): 5.30 percent nuclear counts per min; Percentage Inhibition [2, 4]: 74%

Question: With `Clc1cc2c(cc1Cl)Oc1cc(Cl)c(Cl)cc1O2` [2,3,7,8-Tetrachlorodibenzo-p-dioxine] as the compound, how does the “RNA-releasing Activity” value ([1]; 0.125 micromoles/kg, intraperitoneal, plasma ~21 days after exposure, control subtracted) read?
Answer: 0.00 percent nuclear counts per min

Question: And the “induction of the cancer-associated phosphoprotein in the plasma” value [1]?
Answer: do not induce significant quantities of the cancer-associated phosphoprotein

Question: What about the “toxicity in the rat” value (rat) of the same compound?
Answer: very potent toxins in the rat

Question: Which “RNA-releasing Activity” value [1, 5] does the source give for `CC(=O)Nc1ccc2c(c1)Cc1ccccc1-2` [2-Acetylaminofluorene] here?
Answer: 5.11 percent nuclear counts per min

Question: What about the “Percentage Inhibition” value [2, 4] of the same compound?
Answer: 87%

Question: Which “RNA-releasing Activity” value [1, 6] does the source give for `Cc1c(F)ccc2ccc3cc4ccccc4c(C)c3c12` [2-Fluoro-1,12-dimethylbenz[a]anthracene] here?
Answer: 0.10 percent nuclear counts per min

Question: With `Nc1ccc2ccccc2c1` [2-Naphthylamine] as the compound, how does the “RNA-releasing Activity” value ([1]; 500 micromoles/kg, intraperitoneal, plasma ~21 days after exposure, control subtracted) read?
Answer: 3.29 percent nuclear counts per min

Question: Which “RNA-releasing Activity” value [1, 6] does the source give for `Cc1ccc2cc3c(ccc4ccccc43)c3c2c1CC3` [3-Methylcholanthrene] here?
Answer: 5.62 percent nuclear counts per min

Question: For `Cc1c2ccccc2c(C)c2c1ccc1ccccc12` [7,12-Dimethylbenz[a]anthracene], which “RNA-releasing Activity” value [1, 6] is on record?
Answer: 6.42 percent nuclear counts per min

Question: For `c1ccc2nc3ccccc3cc2c1` [Acridine], which “RNA-releasing Activity” value ([1]; 15 micromoles/kg, intraperitoneal, plasma ~21 days after exposure, control subtracted) is on record?
Answer: 0.00 percent nuclear counts per min

Question: What about the “Percentage Inhibition” value [2, 4] of the same compound?
Answer: 2%

Question: Which “RNA-releasing Activity” value ([1]; rat, in vivo) does the source give for `COc1cc2c(c3oc(=O)c4c(c13)CCC4=O)[C@@H]1C=CO[C@@H]1O2` [Aflatoxin B1] here?
Answer: 4.37

Question: Which “RNA-releasing Activity” value ([1]; rat, in vivo, ip) does the source give for `COc1cc2c(c3oc(=O)c4c(c13)CCOC4=O)[C@@H]1CCO[C@@H]1O2` [Aflatoxin G2] here?
Answer: 3.80

Question: With `c1ccc2cc3ccccc3cc2c1` [Anthracene] as the compound, how does the “RNA-releasing Activity” value [1, 6] read?
Answer: 0.17 percent nuclear counts per min

Question: For `c1ccc2cc3c(ccc4ccccc43)cc2c1` [Benz[a]anthracene], which “RNA-releasing Activity” value [1, 6] is on record?
Answer: 4.92 percent nuclear counts per min

Question: For `c1ccc2c(c1)cc1ccc3cccc4ccc2c1c34` [Benzo[a]pyrene], which “RNA-releasing Activity” value [1, 7] is on record?
Answer: 7.73 percent nuclear counts per min

Question: Which “RNA-releasing Activity” value [1, 7] does the source give for `c1ccc2c(c1)c1cccc3ccc4cccc2c4c31` [Benzo[e]pyrene] here?
Answer: 3.37 percent nuclear counts per min

Question: What does the source list for `Cn1c(=O)c2c(ncn2C)n(C)c1=O` [Caffeine]?
Answer: RNA-releasing Activity ([1]; rat, in vivo, ip): 0.07; Percentage Inhibition ([2]; rat, in vivo): 14

Question: With `ClC(Cl)(Cl)Cl` [Carbon tetrachloride, carbon tetrachloride] as the compound, how does the “Percentage Inhibition” value ([2]; ELISA inhibition, plasma fraction of treated rat, standard phosphoprotein solution = 100%, normal rat plasma fraction = 0%, listed as Carbon tetrachloride-1) read?
Answer: 1%

Question: And the “Percentage Inhibition” value ([2]; ELISA inhibition, plasma fraction of treated rat, standard phosphoprotein solution = 100%, normal rat plasma fraction = 0%, listed as Carbon tetrachloride-2)?
Answer: 10%

Question: What does the source list for `CN(C)C=O` [Dimethylformamide]?
Answer: RNA-releasing Activity [1, 5]: 1.30 percent nuclear counts per min; induction of the cancer-associated phosphoprotein in the plasma [1]: induced significant quantities; ability to induce differentiation of transformed cells (transformed cells): reversably induce the differentiation of some types of transformed cells

Question: Which “RNA-releasing Activity” value ([1]; 11.2 millimoles/kg, intraperitoneal, plasma ~21 days after exposure, control subtracted) does the source give for `CCOC(N)=O` [Ethyl carbamate (urethane), Ethyl carbamate] here?
Answer: 3.80 percent nuclear counts per min

Question: For `c1ccc2c(c1)Cc1ccccc1-2` [Fluorene], which “RNA-releasing Activity” value [1, 6] is on record?
Answer: 0.14 percent nuclear counts per min

Question: With `CCN(N=O)C(N)=O` [N--Ethyl-N--nitrosourea] as the compound, how does the “RNA-releasing Activity” value [1, 8] read?
Answer: 4.50 percent nuclear counts per min

Question: Which “RNA-releasing Activity” value ([1]; 440 micromoles/kg, intraperitoneal, plasma ~21 days after exposure, control subtracted) does the source give for `CN(N=O)C(N)=O` [N--Methyl-N--nitrosourea] here?
Answer: 4.69 percent nuclear counts per min

Question: Which “RNA-releasing Activity” value ([1]; 760 micromoles/kg, intraperitoneal, plasma ~21 days after exposure, control subtracted) does the source give for `CCCCN(CCCC)N=O` [N--Nitroso-N,N--dibutylamine] here?
Answer: 5.44 percent nuclear counts per min

Question: What about the “Percentage Inhibition” value [2, 4] of the same compound?
Answer: 75%

Question: For `CCN(CC)N=O` [N--Nitroso-N,N--diethylamine], which “RNA-releasing Activity” value [1, 9] is on record?
Answer: 4.21 percent nuclear counts per min

Question: With `CN(C)N=O` [N--Nitroso-N,N--dimethylamine] as the compound, how does the “RNA-releasing Activity” value ([1]; 135 micromoles/kg, intraperitoneal, plasma ~21 days after exposure, control subtracted) read?
Answer: 3.40 percent nuclear counts per min

Question: What does the source list for `c1ccc2ccccc2c1` [Naphthalene]?
Answer: RNA-releasing Activity [1, 9]: 0.12 percent nuclear counts per min; Percentage Inhibition [2, 4]: 18%

Question: Which results are given for `O=C(O)C(F)(F)C(F)(F)C(F)(F)C(F)(F)C(F)(F)C(F)(F)C(F)(F)C(F)(F)C(F)(F)F` [Nonadecafluorodecanoic acid]?
Answer: RNA-releasing Activity ([1]; 50 micromoles/kg, intraperitoneal, plasma ~21 days after exposure, control subtracted): 0.00 percent nuclear counts per min; induction of the cancer-associated phosphoprotein in the plasma [1]: do not induce significant quantities of the cancer-associated phosphoprotein; toxicity in the rat (rat): very potent toxins in the rat

Question: With `CCC1(c2ccccc2)C(=O)NC(=O)NC1=O` [Phenobarbital] as the compound, how does the “RNA-releasing Activity” value ([1]; 80 micromoles/kg, intraperitoneal, plasma ~21 days after exposure, control subtracted) read?
Answer: 0.08 percent nuclear counts per min

Question: What about the “release of the cancer-associated phosphoprotein into the plasma” value [3] of the same compound?
Answer: not induced

Question: For `c1cc2ccc3cccc4ccc(c1)c2c34` [Pyrene], which “RNA-releasing Activity” value [1, 6] is on record?
Answer: 0.05 percent nuclear counts per min

Question: For `Cc1cc2nc3c(=O)[nH]c(=O)nc-3n(C[C@H](O)[C@H](O)[C@H](O)CO)c2cc1C` [Riboflavin], which “RNA-releasing Activity” value ([1]; 265 micromoles/kg, intraperitoneal, plasma ~21 days after exposure, control subtracted) is on record?
Answer: 0.01 percent nuclear counts per min

Question: What about the “Percentage Inhibition” value [2, 4] of the same compound?
Answer: 11%

Question: For `C=CCc1ccc2c(c1)OCO2` [Safrole], which “RNA-releasing Activity” value [1, 8] is on record?
Answer: 5.90 percent nuclear counts per min

Question: What about the “Percentage Inhibition” value [2, 4] of the same compound?
Answer: 80%
